Measurements published in patent US9223210B2, “Photosensitive compound, photosensitive resin, and photosensitive composition” (TOYO GOSEI CO., LTD., priority 2012, dated 2015).

Assays:
[1] = Solubility in aqueous phosphoric acid solution (Test Example 1); assay type: physicochemical; conditions: for Solubility in aq. phosphoric acid solution (104 g): liquid temperature 20° C., amount dissolved (complete dissolution where stated); for Solubility in aqueous phosphoric acid solution (in words): summary of Table 1
Protocol: (§1) Solubility of each of the photosensitive compounds produced in Comparative Synthesis Examples 1 to 2 and Examples 2 to 5 (comparative photosensitive materials H and I, and photosensitive materials C to F) in 100 g of neutral water (water temperature: 20° C.) was assessed. The solubility in an aqueous phosphoric acid solution (liquid temperature: 20° C.) obtained by mixing phosphoric acid (4 g) and water (100 g), was also determined.

[2] = Solubility in neutral water (Test Example 1); assay type: physicochemical; conditions: 100 g of neutral water, water temperature 20° C.
Protocol: as §1

[3] = phosphoric acid (4 g) and water (100 g)

Row | Solubility in aq. phosphoric acid solution (104 g) [1, 3] | Solubility in water (100 g) [2] | Solubility in aq. phosphoric acid solution (104 g), partial dissolution ([1]; phosphoric acid (4 g) and water (100 g), 20° C., amount giving only partial dissolution) | Compound | Solubility in aqueous phosphoric acid solution (in words) [1]
1 | 0.2 g (complete | ≦0.1 g | 0.4 g (partial | COC(CCCNC(=O)C(=Cc1cccnc1)NC(=O)C=Cc1ccc(N=[N+]=[N-])cc1)OC [Comp. Photosensitive material I, 2-(3-(4-azidophenyl)prop-2-enoylamino)-N-(4,4-dimethoxybutyl)-3-(3-pyridyl)prop-2-enamide] | lower than that of photosensitive materials C to F
2 | 5 g (complete | ≦0.1 g | – | COC(CCCNC(=O)C(=Cc1ccc(N=[N+]=[N-])cc1)NC(=O)c1ccc(CN2CCOCC2)cc1)OC [Photosensitive material C, 3-(4-azidophenyl)-N-(4,4′-dimethoxybutyl)-2-(4-morpholinomethylphenyl)carbonylamino-prop-2-enamide] | –
3 | 5 g (complete | ≦0.1 g | – | [N-]=[N+]=Nc1ccc(C=C(NC(=O)c2ccc(CN3CCOCC3)cc2)C(=O)NCCCC=O)cc1 [Photosensitive material F, 3-(4-azidophenyl)-N-(3-formylpropyl)-2-(4-morpholinomethylphenyl)carbonylamino-prop-2-enamide] | –

Second part, the compound before the results:

Row | Compound | Solubility in aq. phosphoric acid solution (104 g) [1, 3] | Solubility in water (100 g) [2] | Solubility in aq. phosphoric acid solution (104 g), partial dissolution ([1]; phosphoric acid (4 g) and water (100 g), 20° C., amount giving only partial dissolution) | Solubility in aqueous phosphoric acid solution (in words) [1]
4 | 3-(4-azidophenyl)-N-(4,4′-dimethoxybutyl)-2-(4-imidazolylmethylphenyl)carbonylamino-prop-2-enamide [Photosensitive material D] | 5 g (complete | ≦0.1 g | – | –
5 | COC(CCCNC(=O)C(=Cc1ccc(N=[N+]=[N-])cc1)NC(=O)c1ccccc1)OC [Comp. Photosensitive material H, 3-(4-azidophenyl)-N-(4,4′-dimethoxybutyl)-2-phenylcarbonylamino-prop-2-enamide] | ≦0.1 g | ≦0.1 g | – | very low solubility
6 | C=CCN(CC=C)Cc1ccc(C(=O)NC(=Cc2ccc(N=[N+]=[N-])cc2)C(=O)NCCCC(OC)OC)cc1 [Photosensitive material E, 3-(4-azidophenyl)-N-(4,4′-dimethoxybutyl)-2-(4-diallylaminomethylphenyl)carbonylamino-prop-2-enamide] | 5 g (complete | ≦0.1 g | – | –
